We go through 28 compounds from PubChem BioAssay AID296 (DTP/NCI, 2004).

This test relates to MX-1 breast xenograft, nude mice, tumor weight T/C. In words: NCI In Vivo Anticancer Drug Screen. Data for tumor model Human Mammary Carcinoma MX-1 Xenograft (intrarenal inoculation) in NU/NU Swiss (nude) mice. The note with it: endpoint: mean tumor weight change, higher = larger tumour. The essentials: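 Activity is given as a ratio, with each measurement in the compound-treated arm divided by the matching measurement in vehicle-dosed controls. Tumour size or survival serves as the measured parameter.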

Where [1] appears, read: dose: 150.0 mg/kg/injection, schedule: Q04DX003 (sc), vehicle: saline with Tween-80.
Setting [2] is: dose: 300.0 mg/kg/injection, schedule: Q04DX003 (sc), vehicle: saline with Tween-80.
Setting [3] is: dose: 600.0 mg/kg/injection, schedule: Q04DX003 (sc), vehicle: saline with Tween-80.
Where [4] appears, read: dose: 1200.0 mg/kg/injection, schedule: Q04DX003 (sc), vehicle: saline with Tween-80.
Setting [5] is: dose: 2400.0 mg/kg/injection, schedule: Q04DX003 (sc), vehicle: saline with Tween-80.
Where [6] appears, read: dose: 200.0 mg/kg/injection, schedule: Q01DX010 (sc), vehicle: saline with Tween-80.
Where [7] appears, read: dose: 400.0 mg/kg/injection, schedule: Q01DX010 (sc), vehicle: saline with Tween-80.
The mark [8] stands for this setting: dose: 200.0 mg/kg/injection, schedule: Q01DX010 (sc), vehicle: saline.
Setting [9] is: dose: 75.0 mg/kg/injection, schedule: Q04DX003 (sc), vehicle: saline with Tween-80.

Where “and” joins values, the source holds several entries; their conditions need not be identical. Identical values can stand only once. Inconclusive results are not listed. Where a SMILES comes first, the peptide text is derived from it. Bridges are numbered along the chain shown (N, C = ends). Roman numbers before positions name the chains, in order. [ ]: non-standard residue; d: D form. The star is where a group is joined. Quinoxaline2carbonyl = O=C(c1cnc2ccccc2n1)*; NMeV = CN[CH](C(=O)O)C(C)C; NMeC = CN[CH](CS)C(=O)O

As to `O=C(C/C(=N\C(=S)Nc1cc(C(F)(F)F)ccc1Cl)NO)N1CCCC1`, the T/C under setting [1] was 88 % of control, the T/C under setting [2] is 94 % of control, the T/C under setting [3] is 82 % of control and the T/C under setting [4] was 98 % of control.

Consider `O=c1cc(-c2ccccc2)[nH]c2c1CCCC2`, for which the T/C reads like this: under setting [2], 54 % of control; under setting [3], 53 % of control; under setting [4], 65 % of control; under setting [5], 96 % of control.

Regarding `O=Cc1ccc(C=O)c(Cl)c1`, the T/C reads like this: (dose: 600.0 mg/kg/injection, schedule: Q04DX003 (sc), vehicle: Klucel (hydroxypropylcellulose) (HPC)) 77 % of control; (dose: 2400.0 mg/kg/injection, schedule: Q04DX003 (sc), vehicle: Klucel (hydroxypropylcellulose) (HPC)) 120 % of control.

Turning to `CC(=O)N(C)c1ccc(Nc2cc(C)[nH]c3ccc4ncnc4c23)cc1`, the T/C runs as follows: (dose: 50.0 mg/kg/injection, schedule: Q04DX003 (sc), vehicle: saline with Tween-80) 102 % of control; (dose: 100.0 mg/kg/injection, schedule: Q04DX003 (sc), vehicle: saline with Tween-80) 84 % of control; (dose: 200.0 mg/kg/injection, schedule: Q04DX003 (sc), vehicle: saline with Tween-80) 69 % of control.

Turning to `CCOC(=O)C1(c2ccccc2)C(=O)Oc2ccccc21` (stereo not drawn), the T/C is 99 % of control under setting [2], 103 % of control under setting [3], 101 % of control under setting [4] and 99 % of control under setting [5].

With `C1OC1CN1CCN(CC2CO2)CC1` (stereo not drawn), the T/C runs as follows: (dose: 8.0 mg/kg/injection, schedule: Q01DX010 (sc), vehicle: suspension in saline) 289 % of control; (dose: 16.0 mg/kg/injection, schedule: Q01DX010 (sc), vehicle: saline) 8 % of control and 33 % of control; (dose: 16.0 mg/kg/injection, schedule: Q01DX010 (sc), vehicle: suspension in saline) 98 % of control.

Take `CCCCCc1cc(O)c2c(c1)OC(C)(C)[C@@H]1CCC(C)=C[C@@H]21`: the T/C is, setting by setting: (dose: 150.0 mg/kg/injection, schedule: Q04DX003 (sc), vehicle: other) 82 % of control; (dose: 300.0 mg/kg/injection, schedule: Q04DX003 (sc), vehicle: other) 81 % of control; (dose: 1200.0 mg/kg/injection, schedule: Q04DX003 (sc), vehicle: other) 83 % of control.

Regarding `COc1ccc2cc1Oc1ccc(cc1)C[C@H]1c3cc(c(OC)cc3CCN1C)Oc1c(OC)c(OC)cc3c1[C@H](C2)N(C)CC3`, the T/C runs as follows: (dose: 100.0 mg/kg/injection, schedule: Q01DX010 (sc), vehicle: saline with Tween-80) 115 % of control; under setting [6], 42 % of control; under setting [7], 83 % of control; (dose: 800.0 mg/kg/injection, schedule: Q01DX010 (sc), vehicle: saline with Tween-80) 44 % of control.

On to `CCN(CC)CCn1[nH]c2c3ccc(=O)cc3sc3c(NCCN)ccc1c32`, for which the T/C (dose: 6.25 mg/kg/injection, schedule: Q04DX003 (ip), vehicle: water) was 73 % of control and the T/C (dose: 12.5 mg/kg/injection, schedule: Q04DX003 (ip), vehicle: water) was 63 % of control.

Regarding `C1CN2CN3CCN(CN1C3)C2`, the T/C is, setting by setting: (dose: 100.0 mg/kg/injection, schedule: Q01DX010 (sc), vehicle: saline) 114 % of control; under setting [8], 97 % of control.

For the compound `CC1NC(=O)C(NC(=O)c2cnc3ccccc3n2)COC(=O)C(C(C)C)N(C)C(=O)C2CSSCC(C(=O)N(C)C(C(C)C)C(=O)OCC(NC(=O)c3cnc4ccccc4n3)C(=O)NC(C)C(=O)N2C)N(C)C1=O` (stereo not drawn) (I: Quinoxaline2carbonyl-SA[NMeC][NMeV] / II: Quinoxaline2carbonyl-SA[NMeC][NMeV]; ester I:1-II:C, I:C-II:1; disulfide I:3-II:3; configuration not given here), the T/C (dose: 100.0 micrograms/kg/injection, schedule: Q04DX003 (sc), vehicle: Klucel (hydroxypropylcellulose) (HPC)) is 63 % of control; the T/C (dose: 200.0 micrograms/kg/injection, schedule: Q04DX003 (sc), vehicle: Klucel (hydroxypropylcellulose) (HPC)) is 62 % of control; the T/C (dose: 400.0 micrograms/kg/injection, schedule: Q04DX003 (sc), vehicle: Klucel (hydroxypropylcellulose) (HPC)) is 73 % of control; the T/C (dose: 800.0 micrograms/kg/injection, schedule: Q04DX003 (sc), vehicle: Klucel (hydroxypropylcellulose) (HPC)) is 46 % of control.

On to `O=C(C1CO1)C(Cl)(Cl)Cl` (stereo not drawn), for which the T/C (dose: 150.0 mg/kg/injection, schedule: Q04DX003 (sc), vehicle: saline) was 64 % of control.

On to `Cc1c2cc[n+](C)cc2c(C)c2c1[nH]c1ccc(O)cc12`, for which the T/C runs as follows: (dose: 1.5 mg/kg/injection, schedule: Q04DX003 (sc), vehicle: water) 167 % of control; (dose: 6.0 mg/kg/injection, schedule: Q04DX003 (sc), vehicle: water) 91 % of control.

As to `CC/C(=C(/CC)c1ccc(O)cc1)c1ccc(O)cc1`, the T/C is, setting by setting: under setting [9], 66 % of control; under setting [1], 47 % of control; under setting [2], 48 % of control; under setting [3], 55 % of control.

As for `Cc1ccc(S(=O)(=O)NC(=S)S)cc1`, the T/C is 98 % of control under setting [6] and 93 % of control under setting [7].

In the case of `CC1=C[S+](c2ccccc2)c2cccc3cc4ccccc4c1c23` (stereo not drawn), the T/C was 69 % of control (dose: 8.0 mg/kg/injection, schedule: Q04DX003 (sc), vehicle: saline with Tween-80) and 75 % of control (dose: 16.0 mg/kg/injection, schedule: Q04DX003 (sc), vehicle: saline with Tween-80).

`CN(C)CCOc1ccc2c(c1)C/C(=C/c1ncc([N+](=O)[O-])n1C)C2=O`: the T/C was 81 % of control under setting [2], 68 % of control under setting [3], 89 % of control under setting [4] and 70 % of control under setting [5].

For `CCC1CCCCN1C(=S)N/N=C(\C)c1ccccn1` (stereo not drawn), the T/C was 53 % of control (dose: 18.75 mg/kg/injection, schedule: Q04DX003 (sc), vehicle: saline with Tween-80); 97 % of control (dose: 37.5 mg/kg/injection, schedule: Q04DX003 (sc), vehicle: saline with Tween-80); 82 % of control under setting [9].

As to `BrC1c2cccc3cccc(c23)C1Br` (stereo not drawn), the T/C reads like this: under setting [3], 202 % of control; under setting [5], 113 % of control.

Consider `CC1(C)OC1CS(=O)c1ccccc1` (stereo not drawn), for which the T/C under setting [3] was 121 % of control.

Consider `O=c1cnn(C2OC(CO)C(O)C2O)c(=O)[nH]1` (stereo not drawn), for which the T/C under setting [8] is 79 % of control and the T/C (dose: 400.0 mg/kg/injection, schedule: Q01DX010 (sc), vehicle: saline) is 77 % of control.

Turning to `COc1cccc2c1C(=O)c1c(O)c3c(c(O)c1C2=O)CC(O)(/C(C)=N/NC(=O)CCCCC(=O)N/N=C(\C)C1(O)Cc2c(O)c4c(c(O)c2C(OC2CC(N)C(O)C(C)O2)C1)C(=O)c1c(OC)cccc1C4=O)CC3OC1CC(N)C(O)C(C)O1` (stereo not drawn), the T/C is 62 % of control (dose: 50.0 mg/kg/injection, schedule: Q04DX003 (sc), vehicle: water) and 2 % of control (dose: 100.0 mg/kg/injection, schedule: Q04DX003 (sc), vehicle: water).

`Cn1c(=O)[nH]c2nncnc2c1=O`: the T/C (dose: 125.0 mg/kg/injection, schedule: Q04DX003 (sc), vehicle: water) is 92 % of control.

In the case of `CC1(O)C=CC(=O)C=C1`, the T/C runs as follows: (dose: 25.0 mg/kg/injection, schedule: Q04DX003 (ip), vehicle: water) 109 % of control; (dose: 50.0 mg/kg/injection, schedule: Q04DX003 (ip), vehicle: water) 89 % of control.

With `CN1C(=O)CC2(CCN(CCCC(=O)c3ccc(F)cc3)CC2)C1=O`, the T/C (dose: 37.5 mg/kg/injection, schedule: Q04DX003 (sc), vehicle: suspension in saline) is 61 % of control and the T/C (dose: 150.0 mg/kg/injection, schedule: Q04DX003 (sc), vehicle: suspension in saline) was 85 % of control.

With `COC12C(COC(N)=O)C3=C(C(=O)C(C)=C(N)C3=O)N1CC1C2N1C` (stereo not drawn), the T/C (dose: 8.0 mg/kg/injection, schedule: Q01DX010 (sc), vehicle: saline) was -96 % of control and -95 % of control.

On to `C[CH2][Pb]([CH2]C)([CH2]C)[O]C(=O)COc1ccccc1`, for which the T/C is, setting by setting: (dose: 4.5 mg/kg/injection, schedule: Q04DX003 (sc), vehicle: saline with Tween-80) 66 % of control; (dose: 9.0 mg/kg/injection, schedule: Q04DX003 (sc), vehicle: saline with Tween-80) 112 % of control; (dose: 18.0 mg/kg/injection, schedule: Q04DX003 (sc), vehicle: saline with Tween-80) 79 % of control.

Regarding `Oc1ccccc1C=NCCC[N-]CCCN=Cc1ccccc1O.[Co]`, the T/C by setting is: (dose: 25.0 mg/kg/injection, schedule: Q01DX010 (sc), vehicle: suspension in saline) 85 % of control; (dose: 50.0 mg/kg/injection, schedule: Q01DX010 (sc), vehicle: suspension in saline) 93 % of control; (dose: 100.0 mg/kg/injection, schedule: Q01DX010 (sc), vehicle: suspension in saline) 40 % of control; (dose: 200.0 mg/kg/injection, schedule: Q01DX010 (sc), vehicle: suspension in saline) 31 % of control.
